Results published in PubChem BioAssay (NCI).
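Interpolation was linear, between the two tested concentrations surrounding the appropriate level; five concentrations were tested over 48 hours in 96-well plates. At the TGI there is no net growth.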 *1 amine or outer side, *2 acyl side, *3 side chain or, on linkers, in order; H or OH if unused. Where a SMILES comes first, the peptide text is derived from it. [ ]: non-standard residue; d: D form. ξ: configuration not given here. X22 = O=C(C(CC(O)CO)O[*:1])[*:2]; Ile(3ξ) = CCC(C)[C@H](N)C(=O)O; NMeV = CN[C@H](C(=O)O)C(C)C; NMeA = CN[C@@H](C)C(=O)O; βAla = NCCC(=O)O

Assays:
Experiment in all cases: NCI anticancer screen, dose series, 48 h
DLD-1 colon = tested on: DLD-1 colon
DMS 114 small cell lung = tested on: DMS 114 small cell lung
DMS 273 small cell lung = tested on: DMS 273 small cell lung
HOP-18 NSCLC = tested on: HOP-18 NSCLC
KM20L2 colon = tested on: KM20L2 colon
M19-MEL melanoma = tested on: M19-MEL melanoma
SNB-78 CNS = tested on: SNB-78 CNS
XF 498 CNS = tested on: XF 498 CNS
RXF-631 renal = tested on: RXF-631 renal

SMILES	TGI (DLD-1 colon) [µM]	TGI (DMS 114 small cell lung) [µM]	TGI (DMS 273 small cell lung) [µM]	TGI (HOP-18 NSCLC) [µM]	TGI (KM20L2 colon) [µM]	TGI (M19-MEL melanoma) [µM]	TGI (SNB-78 CNS) [µM]	TGI (XF 498 CNS) [µM]	TGI (RXF-631 renal) [µM]
CCOC(=O)CC(NCc1ccc(N=Cc2nc3ccc(C(F)(F)F)cc3nc2-c2ccccc2)cc1)C(=O)OCC (stereo not given)	> 100	> 100	> 100	> 100	> 100	> 100	> 100	40.5	
COc1c(C)c(O)c2c(c1C)OC(c1ccccc1)CC2=O (stereo not given)	> 100	> 100	> 100	> 100	> 100	> 100	> 100		
Cc1nc2ccc(N)cc2[nH]c1=O	> 100		> 100		> 100	> 100	> 100		> 100
CCOC(=O)c1c2ccc(/C=C/c3ccccc3)ccc-2c(C(=O)OCC)c1N	> 100	> 100	> 100	> 100	> 100	> 100			> 100
C[N+]1(C)C[C@@H](O)C[C@@H]1C(=O)[O-]	> 100	> 100	> 100	> 100	> 100	> 100	> 100	> 100	
N#CC1CCCCC1NC1(C#N)CCCCC1 (stereo not given)	> 100	> 100	> 100		> 100		> 100	> 100	
C=C(C)CC(C)(c1cc2ccccc2n1C)N1CCOCC1 (stereo not given)	> 100		> 100	> 100	> 100	> 100		> 100	> 100
COC(=O)N/N=C(/c1nc2ccc([N+](=O)[O-])cc2[nH]c1=O)C(O)c1ccc(OC)c(OC)c1 (stereo not given)	> 100	51.3	63.7	> 100	> 100	> 100	> 100	> 100	> 100
CCC(C)[C@@H]1NC(=O)[C@@H]2CCCN2C(=O)C(CC(O)CO)OC(=O)CCNC(=O)[C@H](C)N(C)C(=O)[C@H](C(C)C)N(C)C1=O (stereo not given in full) (cyclo([Ile(3ξ)][NMeV][NMeA][βAla][X22]P))	> 100		> 100		> 100	> 100	> 100	> 100	> 100
CSc1nc2nc(C(O)C(O)C(O)CO)cnc2c(=O)[nH]1 (stereo not given)	> 100	> 100	> 100		> 100	> 100	> 100	> 100	
COC1=CC(=O)C2C(C1=O)C(c1ccc(Cl)cc1)[C@@H]2C (stereo not given in full)	70.5	47.7	> 100	25.2	> 100	97.9	> 100	37.5	
COC(=O)/C(=N/NC(C)(C)C)C(C(=O)OC)C(=O)C(=O)Nc1nc2ccc([N+](=O)[O-])cc2s1 (stereo not given)		> 100			> 100	> 100	> 100	> 100	
COC(=O)C(Cc1nc2ccccc2[nH]c1=O)C(=O)C(=O)Nc1ccc(F)cc1 (stereo not given)	> 100	80.7	> 100	> 100	> 100	> 100		> 100	> 100
CCSc1nnc(-c2ccccc2)nc1Cc1ccc(OC)cc1	> 100		> 100	> 100	> 100	> 100	> 100	> 100	
